{"source": "patent US20080182267A1", "about": "“METHOD FOR PREDICTING A DRUG TRANSPORT CAPABILITY BY ABCG2 POLYMORPHISMS” (BANYU PHARMACEUTICAL CO., Ltd., priority 2002, published 2008)", "key": {"[1]": {"test_system": "LLC-PK1 cell line (C4) transfected with vector alone", "experiment": "Cytotoxicity by sulforhodamine B dye-staining, clone C4 (vector alone)", "format": "cell-based, porcine", "conditions": "Sus scrofa, no ABCG2, 72 hours, 37° C., read-out: IC50 for cell viability", "description": "(§1) Among the polymorphic mutations identified in Example 1, two mutations—G34A and C421A—having a high possibility to affect the function of the ABCG2 polypeptide were prepared and introduced into animal cells as an endeavor to analyze their functions. Preparation of the mutated ABCG2 genes was conducted by PCR and a point mutation was introduced. […] As a control, a plasmid expressing the wild type (WT) ABCG2 and the vector plasmid pcDNA3.1(+) alone without the ABCG2 gene were used and those four kinds of expression plasmids were introduced to an animal cell (porcine kidney cell line) LLC-PK1 by lipofection method (Lipofectamine; Gibco BRL). Stable transfectants were selected with 1,500 μg/ml of Geneticin (Gibco BRL) for two weeks and cell lines were established. To determine the expressed level of ABCG2 in each cell line, total RNA was extracted from each transfectant cells and HeLa cells with Trizol (Gibco BRL). Seven microgram of the total RNA extracted from each clone of cell and full length ABCG2 cDNA (2.2 kb) probe labeled with ^32P were used for Northern hybridization. […]\n(§2) All of the incubations were carried out at 37° C. under the humidified atmosphere containing 5% of carbon dioxide. The cytotoxicity of anticancer drugs was determined by sulforhodamine B dye-staining method and compared with each other. […]"}, "[2]": {"test_system": "ABCG2 (Gln141Lys mutant)", "experiment": "Cytotoxicity by sulforhodamine B dye-staining, clone 3-28 (ABCG2 Gln141Lys)", "conditions": "pig", "description": "as §1, §2"}, "[3]": {"test_system": "ABCG2 (Val12Met mutant)", "experiment": "Cytotoxicity by sulforhodamine B dye-staining, clone 2-51 (ABCG2 Val12Met)", "conditions": "pig", "description": "as §1, §2"}, "[4]": {"test_system": "LLC-PK1 cell line (1-58) expressing the wild type ABCG2", "experiment": "Cytotoxicity by sulforhodamine B dye-staining, clone 1-58 (wild type ABCG2)", "conditions": "among the four transfectant clones C4, 1-58, 2-51, 3-28", "description": "as §1, §2"}, "[5]": {"test_system": "ABCG2 (wild type)", "experiment": "Cytotoxicity by sulforhodamine B dye-staining, clone 1-58 (wild type ABCG2)", "conditions": "pig", "description": "as §1, §2"}}}
{"molecule": "CC[C@@]1(O)C(=O)OCc2c1cc1n(c2=O)Cc2cc3ccccc3nc2-1", "note": "[Camptothecin, camptothecin]", "values": [{"measurement": "IC50", "setting": "[1]", "result": 8.7, "unit": "nM"}, {"measurement": "IC50 at 72 h", "setting": "[2]", "result": 26.8, "unit": "nM"}, {"measurement": "IC50 at 72 h", "setting": "[3]", "result": 12.2, "unit": "nM"}, {"measurement": "difference in terms of the resistance among the cells", "setting": "[4]", "result": "no significant difference"}, {"measurement": "IC50 at 72 h", "setting": "[5]", "result": 21.3, "unit": "nM"}]}
